Among the test systems are ACHN renal; HOP-92 NSCLC; MALME-3M melanoma; MOLT-4 leukemia; NCI-H460 lung; SW-620 colon; TK-10 renal; U251 CNS; SNB-19 CNS.
Assay in all cases: growth of human tumour cells (NCI), 48 h

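Growth conditions: 96-well plates. Treatment: test compound, 48 hours, 5 concentrations. Analysis: linear interpolation between bracketing concentrations; unreached endpoints set to highest concentration. Abbreviation: GI50, concentration required for 50% inhibition of growth. The concentration for full growth arrest is given as TGI.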

These results are taken from PubChem BioAssay (NCI).

With `COC(=O)C1=C(c2cc(OC)c(OC)c(OC)c2)O[C@H](c2ccc3c(c2)OCO3)[C@H]1COC(C)=O`, the TGI is 92.1 µM in the assay with ACHN renal; 54.4 µM in the assay with HOP-92 NSCLC; more than 100 µM in the assay with MALME-3M melanoma; 74 µM in the assay on MOLT-4 leukemia; more than 100 µM in the assay with NCI-H460 lung; more than 100 µM with SW-620 colon. Also, the TGI is more than 100 µM in the assay with TK-10 renal and 63.5 µM with U251 CNS.
In the case of `CCOC(=O)/C(C#N)=C(N)/C(=N\Nc1cccc(C(F)(F)F)c1)C(=O)OCC`, the TGI in the assay with ACHN renal, with HOP-92 NSCLC, in the assay with MALME-3M melanoma, in the assay with MOLT-4 leukemia, with SNB-19 CNS and with SW-620 colon was more than 100 µM each time. The TGI in the assay on TK-10 renal and in the assay on U251 CNS was more than 100 µM throughout.
As to `CNC(C)Cc1ccc(O)cc1` (stereo not drawn), the TGI with ACHN renal, in the assay on HOP-92 NSCLC, in the assay with MALME-3M melanoma, in the assay on MOLT-4 leukemia, with NCI-H460 lung and in the assay with SNB-19 CNS was more than 100 µM each time. The TGI with SW-620 colon, in the assay on TK-10 renal and in the assay on U251 CNS was more than 100 µM in each case.
Regarding `c1ccc(COc2cccc3cccnc23)cc1`, the TGI in the assay on ACHN renal, in the assay with HOP-92 NSCLC, with MALME-3M melanoma, in the assay with MOLT-4 leukemia, with NCI-H460 lung and in the assay on SNB-19 CNS was more than 100 µM throughout. For the same compound, the TGI in the assay on SW-620 colon and with TK-10 renal was more than 100 µM each time.
Consider `CC1=NN(C(=O)c2cc(Cl)cc([N+](=O)[O-])c2)C(=O)C1N=Nc1ccccc1C(=O)O` (stereo not drawn), for which the TGI with ACHN renal, with MALME-3M melanoma, in the assay on MOLT-4 leukemia, in the assay on NCI-H460 lung, in the assay on SNB-19 CNS and in the assay on SW-620 colon was more than 100 µM each time. Further, the TGI with TK-10 renal and with U251 CNS was more than 100 µM each time.
With `C/C=C/C(=O)[O-].N.N.N.N.N.[Co+3].[O-][Cl+3]([O-])([O-])[O-]`, the GI50 in the assay with ACHN renal, with HOP-92 NSCLC, in the assay with MALME-3M melanoma, in the assay on MOLT-4 leukemia, in the assay on NCI-H460 lung and in the assay with SNB-19 CNS was more than 100 µM in each case. Further, the GI50 in the assay with SW-620 colon, in the assay with TK-10 renal and in the assay with U251 CNS was more than 100 µM throughout. Moreover, the TGI with ACHN renal, in the assay with HOP-92 NSCLC, with MALME-3M melanoma, with MOLT-4 leukemia, with NCI-H460 lung and in the assay with SNB-19 CNS was more than 100 µM in each case. Moreover, the TGI in the assay with SW-620 colon, in the assay on TK-10 renal and in the assay with U251 CNS was more than 100 µM throughout.
As to `Cc1cccc(O)c(=O)c1`, the TGI in the assay with ACHN renal, with HOP-92 NSCLC, in the assay on MALME-3M melanoma, in the assay on MOLT-4 leukemia, in the assay on NCI-H460 lung and in the assay with SNB-19 CNS was more than 100 µM each time. For the same compound, the TGI in the assay with SW-620 colon, with TK-10 renal and with U251 CNS was more than 100 µM in each case.
In the case of `O=c1cccccc1NCCNc1cccccc1=O`, the TGI in the assay with ACHN renal is more than 100 µM; in the assay with HOP-92 NSCLC, more than 100 µM; in the assay with MALME-3M melanoma it was 47.9 µM; with MOLT-4 leukemia it was more than 100 µM; in the assay on NCI-H460 lung, more than 100 µM; in the assay with SNB-19 CNS, more than 100 µM. Further, the TGI in the assay with SW-620 colon and in the assay with U251 CNS was more than 100 µM in each case.
For `COc1cc(CNC(=O)CCSc2nc3ccccc3c(=O)n2Cc2cc(OC)c(OC)c(OC)c2)cc(OC)c1OC`, the GI50 in the assay with ACHN renal is 8.09 µM; in the assay on HOP-92 NSCLC, 5.7 µM; in the assay with MOLT-4 leukemia, 7.38 µM; with NCI-H460 lung, 4.19 µM; in the assay with SNB-19 CNS, 6 µM; in the assay with SW-620 colon, 4.31 µM. Further, the GI50 in the assay with TK-10 renal was 11 µM; in the assay on U251 CNS, 5.34 µM. In addition, the TGI in the assay with ACHN renal is more than 100 µM; in the assay on HOP-92 NSCLC, 23.9 µM; with MOLT-4 leukemia, more than 100 µM; in the assay with NCI-H460 lung, 27.5 µM; with SNB-19 CNS, more than 100 µM; in the assay with SW-620 colon it was more than 100 µM. In addition, the TGI with TK-10 renal stood at 44.4 µM; with U251 CNS, 59.5 µM.
As to `Cc1ccc(C)c2c1CCc1cc3ccccc3nc1-2`, the TGI in the assay with ACHN renal, in the assay with MALME-3M melanoma, in the assay on MOLT-4 leukemia, with NCI-H460 lung, in the assay with SNB-19 CNS and with SW-620 colon was more than 100 µM throughout. Further, the TGI in the assay on TK-10 renal and with U251 CNS was more than 100 µM throughout.
Turning to `CC(=O)OCC(OC(C)=O)C(OC(C)=O)C(OC(C)=O)C(=O)CNn1c(-c2ccccc2Cl)nc2ccc(Br)cc2c1=O` (stereo not drawn), the TGI in the assay with ACHN renal, in the assay with MALME-3M melanoma, in the assay with MOLT-4 leukemia, in the assay with NCI-H460 lung, with SNB-19 CNS and with SW-620 colon was more than 100 µM throughout. In addition, in the assay on U251 CNS, the TGI was more than 100 µM.
With `CCC1(CC)C(=O)[N-]C(=O)[N-]C1=O.[Au+].[Au+].c1ccc([PH+](c2ccccc2)c2ccccc2)cc1.c1ccc([PH+](c2ccccc2)c2ccccc2)cc1`, the GI50 was 1.7 µM in the assay on ACHN renal; 0.626 µM in the assay with MALME-3M melanoma; 1.99 µM with NCI-H460 lung; 1.79 µM in the assay on TK-10 renal; 1.16 µM in the assay with U251 CNS. In addition, the TGI in the assay with ACHN renal was 3.07 µM; with MALME-3M melanoma, 1.94 µM; in the assay on NCI-H460 lung it was 4.69 µM; in the assay with TK-10 renal it was 3.18 µM; in the assay with U251 CNS, 2.65 µM.
With `O=C(Nc1ccccc1C(=O)O)C(=O)C(C(=O)c1ccccc1-c1ccccc1)C1OC(=O)c2ccccc21` (stereo not drawn), the TGI was 92.3 µM in the assay on ACHN renal; 28.6 µM with MALME-3M melanoma; more than 100 µM with MOLT-4 leukemia; 32.7 µM with NCI-H460 lung; 35.2 µM with SNB-19 CNS; 56.6 µM with SW-620 colon. In addition, the TGI in the assay on TK-10 renal amounted to 29.6 µM; with U251 CNS, 28.9 µM.
Consider `O=C1OC(c2ccccc2)=N/C1=C/N1CCCC1C(=O)O` (stereo not drawn), for which the TGI in the assay on ACHN renal, with HOP-92 NSCLC, in the assay with MALME-3M melanoma, in the assay with NCI-H460 lung, in the assay on SNB-19 CNS and in the assay on SW-620 colon was more than 100 µM throughout. The TGI with TK-10 renal and with U251 CNS was more than 100 µM each time.
